Results on five molecules are retold here after patent US8076482B2, “3,3′-spiroindolinone derivatives” (Hoffmann-La Roche Inc., priority 2009, dated 2011).

The target of the assay is interaction between p53 and MDM2 proteins (Homo sapiens, UniProt Q00987). The assay is described as follows: HTRF assay of inhibition of the p53-MDM2 interaction (GST-MDM2 / biotinylated p53 peptide). The conditions noted are these: 0.02% BSA. Format: binding. The procedure:
The ability of the compounds to inhibit the interaction between p53 and MDM2 proteins was measured by an HTRF (homogeneous time-resolved fluorescence) assay in which recombinant GST-tagged MDM2 binds to a peptide that resembles the MDM2-interacting region of p53 (Lane et al.). Binding of GST-MDM2 protein and p53-peptide (biotinylated on its N-terminal end) is registered by the FRET (fluorescence resonance energy transfer) between Europium (Eu)-labeled anti-GST antibody and streptavidin-conjugated Allophycocyanin (APC).
Test is performed in black flat-bottom 384-well plates (Costar) in a total volume of 40 uL containing: 90 nM biotinylate peptide, 160 ng/ml GST-MDM2, 20 nM streptavidin-APC (PerkinElmerWallac), 2 nM Eu-labeled anti-GST-antibody (PerkinElmerWallac), 0.2% bovine serum albumin (BSA), 1 mM dithiothreitol (DTT) and 20 mM […] (TBS) buffer as follows: Add 10 uL of GST-MDM2 (640 ng/ml working solution) in reaction buffer to each well. Add 10 uL diluted compounds (1:5 dilution in reaction buffer) to each well, mix by shaking. Add 20 uL biotinylated p53 peptide (180 nM working solution) in reaction buffer to each well and mix on shaker. Incubate at 37° C. for 1 h. Add 20 uL streptavidin-APC and Eu-anti-GST antibody mixture (6 nM Eu-anti-GST and 60 nM streptavidin-APC working solution) in TBS buffer with 0.2% BSA, shake at room temperature for 30 minutes and read using a TRF-capable plate reader at 665 and 615 nm (Victor 5, Perkin ElmerWallac).
For orientation: Time-resolved FRET reads energy transfer from a long-lived donor to a nearby acceptor.

The structures appear in SMILES notation.

Chain of interaction between p53 and MDM2 proteins (Q00987 whole entry): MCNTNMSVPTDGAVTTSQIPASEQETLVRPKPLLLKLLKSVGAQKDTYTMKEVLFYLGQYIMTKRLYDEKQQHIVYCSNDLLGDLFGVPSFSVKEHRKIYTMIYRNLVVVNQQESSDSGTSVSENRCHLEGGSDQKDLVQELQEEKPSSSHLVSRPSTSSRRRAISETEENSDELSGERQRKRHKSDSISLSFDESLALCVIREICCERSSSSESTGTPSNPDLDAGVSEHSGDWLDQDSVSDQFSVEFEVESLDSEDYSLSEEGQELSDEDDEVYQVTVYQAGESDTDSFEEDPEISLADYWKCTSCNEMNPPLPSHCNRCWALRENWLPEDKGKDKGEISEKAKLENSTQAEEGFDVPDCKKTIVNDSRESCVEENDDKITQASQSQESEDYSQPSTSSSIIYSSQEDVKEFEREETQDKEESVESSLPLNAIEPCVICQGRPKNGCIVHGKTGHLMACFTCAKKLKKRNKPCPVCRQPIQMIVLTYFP

What is called IC50 is the concentration needed to halve the response being measured. The low end stands for higher potency, the high end for lower potency. `CCC(CC)(Oc1ccc(Cl)cc1[C@H]1CC(=S)N[C@@H](c2cc(F)ccc2C)[C@]12C(=O)Nc1cc(Cl)ccc12)C(=O)NS(C)(=O)=O` [Example 24, chiral (2′S, 3S, 4′R)-6-chloro-4′-[5-chloro-2-(2-methanesulfonylamino-1,1-diethyl-2-oxo-ethoxy)-phenyl]-2′-(5-fluoro-2-methyl-phenyl)-6′-thioxo spiro[3H-indole-3,3′-piperidine]-2(1H)-one] returned an IC50 of 22 nM. For the molecule `Cc1ccc(F)cc1[C@@H]1NC(=S)C[C@H](c2cc(Cl)ccc2OC(C)(C)C(=O)O)[C@@]12C(=O)Nc1cc(Cl)ccc12` [Example 8, chiral (2′S, 3S, 4′R)-6-chloro-4′-[5-chloro-2-(1-hydroxycarbonyl-1-methyl-ethoxy)-phenyl]-2′-(5-fluoro-2-methyl-phenyl)-6′-thioxo spiro[3H-indole-3,3′-piperidine]-2(1H)-one], it took 50 nM to reach half-maximal inhibition (IC50). In the case of `COC(=O)C1(Oc2ccc(Cl)cc2[C@H]2CC(=S)N[C@@H](c3cc(F)ccc3C)[C@]23C(=O)Nc2cc(Cl)ccc23)CCC1` (racemic) [Example 50, racemic (2′S, 3S, 4′R)-6-chloro-4′-[5-chloro-2-(1-methoxycarbonyl-cyclobutoxy)-phenyl]-2′-(5-fluoro-2-methyl-phenyl)-6′-thioxo spiro[3H-indole-3,3′-piperidine]-2(1H)-one] it was 4330 nM; in that of `COc1cc(F)c(Cl)cc1[C@@H]1CC(=S)N[C@H](c2cc(F)ccc2C)[C@@]12C(=O)Nc1cc(Cl)ccc12` (racemic) [Example 62], 1090 nM; in that of `CONC(=O)C(C)(C)Oc1ccc(Cl)cc1[C@H]1CC(=S)N[C@@H](c2cc(F)ccc2C)[C@]12C(=O)Nc1cc(Cl)ccc12` (racemic) [Example 73, racemic (2′S, 3S, 4′R)-6-chloro-4′-[5-chloro-2-(1-methoxycarbamoyl-1-methyl-ethoxy)-phenyl]-2′-(5-fluoro-2-methyl-phenyl)-6′-thioxo spiro[3H-indole-3,3′-piperidine]-2(1H)-one], 607 nM.
